Assay results published in US7632933B2, “Corticotropin releasing factor 2 receptor agonists” (priority 2002, dated 2009).
Ends that are not written are not given here. Peptide text beside a SMILES is read from it.

How the values were obtained:
CRF2R = target: T1, CRF2R (Homo sapiens, UniProt Q13324); experiment: CRF2R agonist activity (EC50 and Emax), called comparative CRF binding; format: cell-based; settings: CRF2R; read-out: CRF2R EC50
T1 sequence (Q13324 1-411): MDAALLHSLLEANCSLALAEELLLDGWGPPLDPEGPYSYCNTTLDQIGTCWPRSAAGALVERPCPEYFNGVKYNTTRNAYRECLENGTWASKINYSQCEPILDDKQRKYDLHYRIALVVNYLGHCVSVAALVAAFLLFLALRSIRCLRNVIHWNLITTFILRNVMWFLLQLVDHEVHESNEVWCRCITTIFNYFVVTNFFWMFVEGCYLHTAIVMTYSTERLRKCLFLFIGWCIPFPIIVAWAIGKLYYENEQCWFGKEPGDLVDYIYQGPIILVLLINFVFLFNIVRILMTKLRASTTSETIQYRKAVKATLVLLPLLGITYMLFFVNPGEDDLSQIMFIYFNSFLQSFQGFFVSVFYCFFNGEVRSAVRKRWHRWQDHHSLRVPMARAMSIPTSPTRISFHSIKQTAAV
Excerpt: (§1) The pharmacological activity and selectivity of the peptides of present invention can be determined using published test procedures. See, e.g, U.S. patent application Ser. No. 09/799,978. Because CRF2R and CRF1R are homologous proteins, it is expected that a certain proportion of agonists for CRF2R will also function as agonists of CRF1R. As discussed above, activation of CRF1R induces activation of the HPA axis since increased corticosteroid production leads to skeletal muscle atrophy. In most cases in which an increase in muscle mass or function is desired, it is not desirable to activate the HPA axis.
(§2) Because it is desirable to discriminate binding between CRF2R, as compared with CRF1R, the assays described above may be conducted using a cell, or membrane from a cell, which expresses only CRF2R or the assays can be conducted with a recombinant source of CRF2R. Cells expressing both forms of CRFR may be modified using homologous recombination to inactivate or otherwise disable the CRF1R gene. Alternatively, if the source of CRFR contains more than one CRFR type, the background signal produced by the receptor which is not of interest must be subtracted from the signal obtained in the assay. […] Known antagonists of CRFRs include, but are not limited to, antalarmin (CRF1R selective), antisauvagine-30 (CRF2R selective) and astressin (nonselective for CRF1R/CRF2R).
(§3) Cell-based assays include the steps of contacting cells which express CRF1R or CRF2R with a peptide of the present invention or control and measuring activation of the CRFR by measuring the expression or activity of components of the CRFR signal transduction pathways.
(§4) For example, after contact with a peptide of the present invention, lysates of the cells can be prepared and assayed for induction of cAMP. cAMP is induced in response to Gαs activation. Because Gαs is activated by receptors other than CRFR and because a test peptide may be exerting its effect through CRFRs or by another mechanism, two control comparisons are relevant for determining whether the peptide increases levels of cAMP via activation of a CRFR. One control compares the cAMP level of cells contacted with the peptide and the cAMP level of cells contacted with a control compound (i.e., the vehicle in which the peptide is dissolved).
(§5) In one example, cAMP induction is measured with the use of DNA constructs containing the cAMP responsive element linked to any of a variety of reporter genes can be introduced into cells expressing CRFRs. Such reporter genes include, but are not limited to, chloramphenicol acetyltransferase (CAT), luciferase, glucuronide synthetase, growth hormone, fluorescent proteins (e.g., Green Fluorescent Protein), or alkaline phosphatase. Following exposure of the cells to the peptide, the level of reporter gene expression can be quantitated to determine the peptide's ability to increase cAMP levels and thus determine the peptide's ability to activate the CRFR.
(§6) In addition to using cells expressing full length CRFRs, cells can be engineered which express CRFRs containing the ligand binding domain of the receptor coupled to, or physically modified to contain, reporter elements or to interact with signaling proteins. For example, a wild type CRFR or CRFR fragment can be fused to a G-protein resulting in activation of the fused G-protein upon agonist binding to the CRFR portion of the fusion protein. […] In addition, alternative pathways for induction of the CRE reporter could be eliminated to reduce basal levels.

CRF1R = target: T2, CRF1R (Homo sapiens, UniProt P34998); experiment: CRF1R agonist activity (EC50 and Emax), called comparative CRF binding; format: cell-based; settings: CRF1R; read-out: CRF1R EC50
T2 sequence (P34998 24-415): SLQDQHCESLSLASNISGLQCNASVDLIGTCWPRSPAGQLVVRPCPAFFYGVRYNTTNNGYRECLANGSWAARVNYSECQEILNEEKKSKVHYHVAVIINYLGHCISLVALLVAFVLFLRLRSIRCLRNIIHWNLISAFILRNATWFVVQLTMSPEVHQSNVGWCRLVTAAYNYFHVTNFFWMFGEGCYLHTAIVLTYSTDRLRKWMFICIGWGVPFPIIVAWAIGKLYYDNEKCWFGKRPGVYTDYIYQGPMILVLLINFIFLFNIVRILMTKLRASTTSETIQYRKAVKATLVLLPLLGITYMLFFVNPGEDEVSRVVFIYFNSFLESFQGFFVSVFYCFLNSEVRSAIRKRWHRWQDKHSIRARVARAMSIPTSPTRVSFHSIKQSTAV
Excerpt: as §1, §2, §3, §4, §5, §6

Compound `CC[C@H](C)[C@H](N)C(=O)N[C@H](C(=O)N[C@@H](CC(C)C)C(=O)N[C@@H](CO)C(=O)N[C@@H](CC(C)C)C(=O)N[C@@H](CC(=O)O)C(=O)N[C@H](C(=O)N1CCC[C@H]1C(=O)N[C@H](C(=O)NCC(=O)N[C@@H](CC(C)C)C(=O)N[C@@H](CC(C)C)C(=O)N[C@@H](CCC(N)=O)C(=O)N[C@H](C(=O)N[C@@H](CC(C)C)C(=O)N[C@@H](CC(C)C)C(=O)N[C@@H](CCC(=O)O)C(=O)N[C@@H](CCC(N)=O)C(=O)N[C@@H](C)C(=O)N[C@@H](CCCCN)C(=O)N[C@@H](C)C(=O)N[C@@H](CCCNC(=N)N)C(=O)N[C@@H](C)C(=O)N[C@@H](C)C(=O)N[C@@H](CCCNC(=N)N)C(=O)N[C@@H](CCC(=O)O)C(=O)N[C@@H](CCC(N)=O)C(=O)N[C@@H](C)C(=O)N[C@H](C(=O)N[C@H](C(=O)N[C@@H](CC(N)=O)C(=O)N[C@@H](C)C(=O)N[C@@H](CCCNC(=N)N)C(=O)N[C@H](C(=O)N[C@@H](CC(C)C)C(=O)N[C@@H](C)C(=O)N[C@@H](CCCNC(=N)N)C(=O)N[C@H](C(N)=O)C(C)C)[C@@H](C)CC)[C@@H](C)O)[C@@H](C)O)[C@@H](C)CC)[C@@H](C)CC)C(C)C)C(C)C` [compound 109] (H-IVLSLDVPIGLLQILLEQAKARAAREQATTNARILARV-NH2; N-terminus assumed) has an EC50 (CRF2R) of 11.8 nM.

Work on “NDDPPISIDLPLILLRNMIEMARIENEREQAGLNAKYLAEV-NH2 [compound 269]” yielded an EC50 (CRF1R) of no less than 1000 nM and an EC50 (CRF2R) of no less than 100 nM.

Compound `CC[C@H](C)[C@H](NC(=O)[C@H](C)NC(=O)[C@H](CC(N)=O)NC(=O)[C@H](CCC(N)=O)NC(=O)[C@H](CCC(=O)O)NC(=O)[C@H](C)NC(=O)[C@H](CCCNC(=N)N)NC(=O)[C@H](CCC(=O)O)NC(=O)[C@H](CCCNC(=N)N)NC(=O)[C@H](CCC(N)=O)NC(=O)[C@H](CO)NC(=O)[C@H](CCC(N)=O)NC(=O)[C@@H](NC(=O)[C@H](CCCNC(=N)N)NC(=O)[C@H](C)NC(=O)[C@H](CC(C)C)NC(=O)[C@H](CCC(=O)O)NC(=O)[C@H](CC(C)C)NC(=O)[C@H](CC(C)C)NC(=O)[C@@H](NC(=O)[C@H](CCCNC(=N)N)NC(=O)[C@H](CC(C)C)NC(=O)[C@H](CC(C)C)NC(=O)[C@H](Cc1ccc(O)cc1)NC(=O)[C@@H](NC(=O)[C@@H]1CCCN1C(=O)[C@H](CC(C)C)NC(=O)[C@H](CC(=O)O)NC(=O)[C@@H](NC(=O)[C@H](CO)NC(=O)[C@H](CC(C)C)NC(=O)[C@H](CO)NC(=O)[C@@H]1CCCN1C(=O)[C@H](CC(N)=O)NC(=O)[C@@H](N)CC(=O)O)[C@@H](C)CC)[C@@H](C)O)[C@@H](C)O)[C@@H](C)O)C(=O)N[C@H](C(=O)N[C@@H](Cc1ccccc1)C(=O)N[C@@H](C)C(=O)N[C@@H](CO)C(=O)N[C@H](C(N)=O)C(C)C)[C@@H](C)CC` [compound 173] (H-DNPSLSIDLPTYLLRTLLELARTQSQRERAEQNAIIFASV-NH2) has an EC50 (CRF1R) of no less than 1000 nM and an EC50 (CRF2R) of no less than 100 nM.

“SQEPPISLDLPLGLLREVLEMTKADQLAQQAHSNRKLLDIA-NH2 [compound 90]” gave an EC50 (CRF1R) of no less than 100 nM and an EC50 (CRF2R) of no less than 100 nM.

“NDDPPISIDLPQYLLRNMIEMARIENEREQAGLNAKYLAEV-NH2 [compound 265]” showed an EC50 (CRF1R) of no less than 1000 nM and an EC50 (CRF2R) of no less than 100 nM.

For “NDDPPISIDLPLLLLRNMIEMARIENEREQAGLNAKYLAEV-NH2 [compound 268]”, the EC50 (CRF1R) was no less than 1000 nM and the EC50 (CRF2R) was no less than 100 nM.

In the case of “SQEPPISLDLTIGLLREVLEMTKADQLAQQAHSNRKLLDIA-NH2 [compound 86]”, the EC50 (CRF1R) is reported as no less than 100 nM and the EC50 (CRF2R) is reported as no less than 100 nM.

“SQEPPISLDLPLQLLREVLEMTKADQLAQQAHSNRKLLDIA-NH2 [compound 95]” was tested, and the EC50 (CRF1R) was no less than 100 nM and the EC50 (CRF2R) was no less than 100 nM.

“SQEPPISLDLPFGLLREVLEMTKADQLAQQAHSNRKLLDIA-NH2 [compound 103]” showed an EC50 (CRF1R) of no less than 100 nM and an EC50 (CRF2R) of no less than 100 nM.

`CC[C@H](C)[C@H](NC(=O)[C@H](C)NC(=O)[C@H](CC(N)=O)NC(=O)[C@H](CCC(N)=O)NC(=O)[C@H](CCC(=O)O)NC(=O)[C@H](C)NC(=O)[C@H](CCCNC(=N)N)NC(=O)[C@H](CCC(=O)O)NC(=O)[C@H](CCCNC(=N)N)NC(=O)[C@H](CCC(N)=O)NC(=O)[C@H](CO)NC(=O)[C@H](CCC(N)=O)NC(=O)[C@@H](NC(=O)[C@H](CCCNC(=N)N)NC(=O)[C@H](C)NC(=O)[C@H](CC(C)C)NC(=O)[C@H](CCC(=O)O)NC(=O)[C@H](CC(C)C)NC(=O)[C@H](CC(C)C)NC(=O)[C@@H](NC(=O)[C@H](CCCNC(=N)N)NC(=O)[C@H](CC(C)C)NC(=O)[C@H](CC(C)C)NC(=O)[C@H](Cc1ccc(O)cc1)NC(=O)[C@H](CCC(N)=O)NC(=O)[C@@H]1CCCN1C(=O)[C@H](CC(C)C)NC(=O)[C@H](CC(=O)O)NC(=O)[C@@H](NC(=O)[C@H](CO)NC(=O)[C@H](CC(C)C)NC(=O)[C@H](CO)NC(=O)[C@@H]1CCCN1C(=O)[C@H](CC(N)=O)NC(=O)[C@@H](N)CC(=O)O)[C@@H](C)CC)[C@@H](C)O)[C@@H](C)O)C(=O)N[C@H](C(=O)N[C@@H](Cc1ccccc1)C(=O)N[C@@H](C)C(=O)N[C@@H](CO)C(=O)N[C@H](C(N)=O)C(C)C)[C@@H](C)CC` [compound 339] (H-DNPSLSIDLPQYLLRTLLELARTQSQRERAEQNAIIFASV-NH2) gave an EC50 (CRF1R) of no less than 1000 nM and an EC50 (CRF2R) of no less than 100 nM.

For “NDDPPISIDLPTYLLRNMIEMARIENEREQAGLNAKYLAEV-NH2 [compound 266]”, the EC50 (CRF1R) was no less than 1000 nM and the EC50 (CRF2R) was no less than 100 nM.

“SQEPPISLDLPFYLLREVLEMTKADQLAQQAHSNRKLLDIA-NH2 [compound 96]” showed an EC50 (CRF1R) of no less than 100 nM and an EC50 (CRF2R) of no less than 100 nM.

With “SQEPPISLDLPLELLREVLEMTKADQLAQQAHSNRKLLDIA-NH2 [compound 89]” the EC50 (CRF2R) was no less than 100 nM.

Work on `CC[C@H](C)[C@H](N)C(=O)N[C@H](C(=O)N[C@@H](CC(C)C)C(=O)N[C@@H](CO)C(=O)N[C@@H](CC(C)C)C(=O)N[C@@H](CC(=O)O)C(=O)N[C@H](C(=O)N1CCC[C@H]1C(=O)N[C@H](C(=O)NCC(=O)N[C@@H](CC(C)C)C(=O)N[C@@H](CC(C)C)C(=O)N[C@@H](CCC(N)=O)C(=O)N[C@H](C(=O)N[C@@H](CC(C)C)C(=O)N[C@@H](CC(C)C)C(=O)N[C@@H](CCC(=O)O)C(=O)N[C@@H](CCC(N)=O)C(=O)N[C@H](C(=O)N[C@@H](CCCCN)C(=O)N[C@@H](C)C(=O)N[C@@H](CCCNC(=N)N)C(=O)N[C@@H](C)C(=O)N[C@@H](C)C(=O)N[C@@H](CCCNC(=N)N)C(=O)N[C@@H](CCC(=O)O)C(=O)N[C@@H](CCC(N)=O)C(=O)N[C@@H](C)C(=O)N[C@H](C(=O)N[C@H](C(=O)N[C@@H](CC(N)=O)C(=O)N[C@@H](C)C(=O)N[C@@H](CCCNC(=N)N)C(=O)N[C@H](C(=O)N[C@@H](CC(C)C)C(=O)N[C@@H](C)C(=O)N[C@@H](CCCNC(=N)N)C(=O)N[C@H](C(N)=O)C(C)C)[C@@H](C)CC)[C@@H](C)O)[C@@H](C)O)[C@@H](C)O)[C@@H](C)CC)[C@@H](C)CC)C(C)C)C(C)C` [compound 117] (H-IVLSLDVPIGLLQILLEQTKARAAREQATTNARILARV-NH2; N-terminus assumed) yielded an EC50 (CRF2R) of 9.41 nM.
